Values quoted from earlier work as cited in patent US6797829B1, “Synthesis of a novel paramagnetic amino derivative (epm-5) for labelling chemical and biological macromolecules” (Conselho Nacional de Desenvolvimento Cientifico e …, priority 1999, dated 2004).
Where two headings read alike, the source gives them in different places.

pKa of the amine group (in free state): 8
pKa of the amine group (when bound to the N-terminal portion of a peptide chain): about 5.5
Structure (SMILES): CC1(C)CC(N)(C(=O)O)CC(C)(C)N1[O] [Toac, 2,2,6,6tetramethylpiperidine-1-oxyl-4-amine-4-carboxylic acid]
